Assay results: US9884806B2, “Cyclic vinylogous amides as bromodomain inhibitors” (ICAHN SCHOOL OF MEDICINE AT MOUNT SINAI, priority 2013, dated 2018)

Tests used:
[1] = biological target: T1, first bromodomain (BrD1) of human BRD4 (Homo sapiens, UniProt O60885); assay: Fluorescence anisotropy binding assay (competition with FITC-labeled MS417 probe); details: FITC-MS417 probe 80 nM, PBS pH 7.4, 1 hour, 25° C., read-out: BRD4_1 IC50
T1 construct: the first bromodomain (BrD1) of human BRD4; poly-His (cleaved yes); made in house
How it was run: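 Competitive fluorescence anisotropy in PBS pH 7.4: 80 nM FITC-MS417 probe, 0.25 to 1 μM tag-cleaved BrD1, titrated unlabeled ligand, 1 hour at 25° C. IC50 values were fitted and converted to Ki using a corrected Cheng-Prusoff equation assuming one-site competition.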

BRD4_2 = biological target: T2, BRD4_2 (Homo sapiens, UniProt O60885); assay: Fluorescence anisotropy binding assay (competition with FITC-labeled MS417 probe), BRD4_2; details: FITC-MS417 probe 80 nM, PBS pH 7.4, 1 hour, 25° C.
T2 construct: contains two tandem bromodomains (BrD1 and BrD2)

Row | Compound | IC50 [1] | IC50 (BRD4_2) | melting point
1 | COC(=O)c1cc(Cl)ccc1NC1=C(C)C(=O)CC1 [Example 01-20, methyl 5-chloro-2-((2-methyl-3-oxocyclopent-1-en-1-yl)amino)benzoate] | > 10000 nM | > 10000 nM | 162 to 165 °C
2 | CC1=C(Nc2ncccc2Cl)CCCC1=O [Example 01-49, 3-[(3-chloropyridin-2-yl)amino]-2-methylcyclohex-2-en-1-one] | 1000 to 10000 nM | > 10000 nM | 113 to 115 °C
3 | CC1=C(Nc2cc(C(=O)O)ccc2Cl)CCC1=O [Example 01-25, 4-chloro-3((2-methyl-3-oxocyclopent-1-en-1-yl)amino)benzoic acid] | 1000 to 10000 nM | > 10000 nM | 272 to 275 °C
4 | CC1=C(Nc2ccc3cccnc3c2)CCCC1=O [Example 01-57, 2-methyl-3-[(quinolin-7-yl)amino]cyclohex-2-en-1-one] | 1000 to 10000 nM | 1000 to 10000 nM | 133 to 135 °C
5 | CC1=C(Nc2cc3ccccc3cn2)CCCC1=O [Example 01-58, 3-[(isoquinolin-3-yl)amino]-2-methylcyclohex-2-en-1-one] | 1000 to 10000 nM | 1000 to 10000 nM | 205 to 208 °C
6 | CC1=C(Nc2ccncc2)CCC1=O [Example 01-30, 2-methyl-3-(pyridin-4-ylamino)cyclopent-2-enone] | 1000 to 10000 nM | 1000 to 10000 nM | 203 to 205 °C
7 | CC1=C(Nc2ccc3nccnc3c2)CCCC1=O [Example 01-60, 2-methyl-3-[(quinoxalin-6-yl)amino]cyclohex-2-en-1-one] | 1000 to 10000 nM | 1000 to 10000 nM | 110 to 112 °C
8 | CC1=C(Nc2ccc3ncncc3c2)CCCC1=O [Example 01-61, 2-methyl-3-[(quinazolin-6-yl)amino]cyclohex-2-en-1-one] | > 10000 nM | > 10000 nM | 215 to 216 °C
9 | CC1=C(Nc2ccc3ncccc3c2)CCCC1=O [Example 01-54, 2-methyl-3-[(quinolin-6-yl)amino]cyclohex-2-en-1-one] | 1000 to 10000 nM | 1000 to 10000 nM | 208 to 210 °C
10 | CC1=C(Nc2ccccc2C(N)=O)CCC1=O [Example 01-18, 2-((2-methyl-3-oxocyclopent-1-en-1-yl)amino)benzamide] | > 10000 nM | > 10000 nM | 235 to 238 °C
11 | CC1=C(Nc2cc(N)ccc2Cl)CCCC1=O [Example 02-10, 3-((5-amino-2-chlorophenyl)amino)-2-methylcyclohex-2-enone] | 1000 to 10000 nM | 1000 to 10000 nM | 182 to 184 °C
12 | CC1=C(Nc2ccc3[nH]c(=O)[nH]c3c2)CCCC1=O [Example 01-63, 5-[(2-methyl-3-oxocyclohex-1-en-1-yl)amino]-2,3-dihydro-1H-1,3-benzodiazol-2-one] | 1000 to 10000 nM | 1000 to 10000 nM | 233 to 235 °C
13 | CC1=C(Nc2cccnc2)CCC1=O [Example 01-29, 2-methyl-3-(pyridin-3-ylamino)cyclopent-2-enone] | > 10000 nM | > 10000 nM | 133 to 135 °C
14 | CC1=C(Nc2cccc(C(=O)O)c2Cl)CCC1=O [Example 01-44, 2-chloro-3((2-methyl-3-oxocyclopent-1-en-1-yl)amino)benzoic acid] | 1000 to 10000 nM | > 10000 nM | 230 to 232 °C
15 | CC1=C(Nc2cc(C(=O)O)c3ccccc3c2)CCCC1=O [Example 01-52, 3-[(2-methyl-3-oxocyclohex-1-en-1-yl)amino]naphthalene-1-carboxylic acid] | 1000 to 10000 nM | 1000 to 10000 nM | 270 to 272 °C
16 | CC1=C(NC2CCN(C(=O)OC(C)(C)C)CC2)CCC1=O (hydrate or solvate) [Example 01-32, tert-Butyl 4-((2-methyl-3-oxocyclopent-1-en-1-yl)amino)piperidine-1-carboxylate] |  |  | 189 to 191 °C
17 | CC1=C(Nc2ccc(C(=O)O)cc2Br)CCC1=O [Example 02-07, 3-bromo-4-((2-methyl-3-oxocyclopent-1-en-1-yl)amino)benzoic acid] |  |  | 246 to 248 °C
18 | CC(=O)c1ccc(NC2=C(C)C(=O)CC2)cc1 [Example 01-09, 3-((4-acetylphenyl)amino)-2-methylcyclopent-2-enone] |  |  | 270 to 273 °C
19 | CC1=C(Nc2ccc(C(=O)O)cc2)CCC1=O [Example 02-01, 4((2-methyl-3-oxocyclopent-1-en-1-yl)amino)benzoic acid] |  |  | 228 to 230 °C
20 | CC1=C(Nc2cccc(Br)c2)CCC1=O |  |  | 291 to 294 °C

Next, values leading:

Row | IC50 [1] | IC50 (BRD4_2) | melting point | Compound
21 | 1000 to 10000 nM | 1000 to 10000 nM | 85 to 87 °C | CC1=C(Nc2cc(NCCc3ccccc3C)ccc2Cl)CCCC1=O [Example 05-73, 3-((2-chloro-5-((2-methylphenethyl)amino)phenyl)amino)-2-methylcyclohex-2-enone]
22 | < 1000 nM | 1000 to 10000 nM | 245 to 247 °C | CC1=C(Nc2ccc(NC(=O)c3cccc4ccccc34)cc2Cl)CCCC1=O [Example 05-47, N-(3-chloro-4-((2-methyl-3-oxocyclohex-1-en-1-yl)amino)phenyl)-1-naphthamide]
23 | < 1000 nM | 1000 to 10000 nM | 158 to 160 °C | CC1=C(Nc2cc(NS(=O)(=O)C3CCCCC3)ccc2Cl)CCC1=O [Example 05-55, N-(4-chloro-3-((2-methyl-3-oxocyclopent-1-en-1-yl)amino)phenyl)-cyclohexanesulfonamide]
24 | < 1000 nM | 1000 to 10000 nM | 132 to 135 °C | CC1=C(Nc2cccc(NCc3ccccc3C)c2Cl)CCCC1=O [Example 05-78, 3-((2-chloro-3-((2-methylbenzyl)amino)phenyl)amino)-2-methylcyclohex-2-enone]
25 | < 1000 nM | 1000 to 10000 nM | 75 to 77 °C | CC1=C(Nc2cccc(NS(=O)(=O)c3ccccc3C)c2Cl)CCC1=O [Example 05-65, N-(2-chloro-3-((2-methyl-3-oxocyclopent-1-en-1-yl)amino)phenyl)-2-methylbenzenesulfonamide]
26 | < 1000 nM | 1000 to 10000 nM | 60 to 67 °C | CC1=C(Nc2cc(NS(=O)(=O)N3CCOCC3)ccc2Cl)CCC1=O [Example 05-62, N-(4-chloro-3-((2-methyl-3-oxocyclopent-1-en-1-yl)amino)phenyl)-morpholine-4-sulfonamide]
27 | > 10000 nM | > 10000 nM | 190 to 195 °C | COc1ccc(C(=O)Nc2ccc(Cl)c(NC3=C(C)C(=O)CCC3)c2)cc1 [Example 05-43, N-(4-chloro-3-((2-methyl-3-oxocyclohex-1-en-1-yl)amino)phenyl)-4-methoxybenzamide]
28 | < 1000 nM | < 1000 nM | 158 to 160 °C | CC1=C(Nc2cc(NCc3ccccc3C)ccc2Cl)CCCC1=O [Example 05-72, 3-((2-chloro-5-((2-methylbenzyl)amino)phenyl)amino)-2-methylcyclohex-2-enone]
29 | < 1000 nM | < 1000 nM | 235 to 238 °C | CC1=C(Nc2cc(NS(=O)(=O)c3ccccc3C#N)ccc2Cl)CCC1=O [Example 05-59, N-(4-chloro-3-((2-methyl-3-oxocyclopent-1-en-1-yl)amino)phenyl)-2-cyanobenzenesulfonamide]
30 | < 1000 nM | < 1000 nM | 196 to 198 °C | CC1=C(Nc2cc(NS(=O)(=O)Cc3ccccc3)ccc2Cl)CCC1=O [Example 05-54, N-(4-chloro-3-((2-methyl-3-oxocyclopent-1-en-1-yl)amino)phenyl)-1-phenylmethanesulfonamide]
31 | < 1000 nM | 1000 to 10000 nM | 234 to 236 °C | CC1=C(Nc2ccc(NC(=O)c3ccccc3C)cc2Cl)CCCC1=O [Example 05-48, N-(3-chloro-4-((2-methyl-3-oxocyclohex-1-en-1-yl)amino)phenyl)-2-methylbenzamide]
32 | < 1000 nM | 1000 to 10000 nM | 215 to 218 °C | CC1=C(Nc2ccc(NS(=O)(=O)c3ccccc3C)cc2Cl)CCC1=O [Example 05-63, N-(3-chloro-4-((2-methyl-3-oxocyclopent-1-en-1-yl)amino)phenyl)-2-methylbenzenesulfonamide]
33 | < 1000 nM | < 1000 nM | 230 to 232 °C | CC1=C(Nc2cc(NC(=O)c3ccccc3C)ccc2Cl)CCC1=O [Example 05-38, N-(4-chloro-3-((2-methyl-3-oxocyclopent-1-en-1-yl)amino)phenyl)-2-methylbenzamide]
34 | < 1000 nM | 1000 to 10000 nM | 222 to 224 °C | COc1ccc(NC(=O)c2ccc(NC3=C(C)C(=O)CC3)c(I)c2)cc1 [Example 04-104, 3-iodo-N-(4-methoxyphenyl)-4-((2-methyl-3-oxocyclopent-1-en-1-yl)amino)benzamide]
35 | < 1000 nM | 1000 to 10000 nM | 210 to 213 °C | CC1=C(Nc2ccc(NS(=O)(=O)C3CCCCC3)cc2Cl)CCC1=O [Example 05-64, N-(3-chloro-4-((2-methyl-3-oxocyclopent-1-en-1-yl)amino)phenyl)-cyclohexanesulfonamide]
36 | < 1000 nM | > 10000 nM | 68 to 70 °C | CC1=C(Nc2ccc(Nc3ccccc3C)cc2Cl)CCCC1=O [Example 05-82, 3-((2-chloro-4-(o-tolylamino)phenyl)amino)-2-methylcyclohex-2-enone]
